Reference: PubChem BioAssay (NCI)
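Grown in 96-well plates, cells were treated for 48 hours with each compound at five concentrations. Insufficient inhibition: endpoint recorded as highest concentration tested. The concentration for 50% growth inhibition is given as GI50. TGI: total growth inhibition.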

Key:
Experiment in all cases: growth of human tumour cells (NCI), 48 h
SR leukemia = tested on: SR leukemia
RPMI-8226 leukemia = tested on: RPMI-8226 leukemia
NCI-H522 lung = tested on: NCI-H522 lung
HOP-92 NSCLC = tested on: HOP-92 NSCLC
HCT-116 colon = tested on: HCT-116 colon
MALME-3M melanoma = tested on: MALME-3M melanoma
HT29 colon = tested on: HT29 colon
HCC-2998 colon = tested on: HCC-2998 colon
UO-31 renal = tested on: UO-31 renal
DU-145 prostate = tested on: DU-145 prostate
BT-549 breast = tested on: BT-549 breast
SK-MEL-5 melanoma = tested on: SK-MEL-5 melanoma
HCT-15 colon = tested on: HCT-15 colon
M19-MEL melanoma = tested on: M19-MEL melanoma
K-562 leukemia = tested on: K-562 leukemia
M14 melanoma = tested on: M14 melanoma

## CCCCCC(=O)N[C@@H](c1ccco1)[C@@H](O)C(=O)O[C@H]1C[C@@]2(O)[C@@H](OC(=O)c3ccccc3)[C@@H]3[C@]4(OC(C)=O)CO[C@@H]4C[C@H](O)[C@@]3(C)C(=O)[C@H](OC(C)=O)C(=C1C)C2(C)C
SR leukemia
  TGI: > 25 µM
RPMI-8226 leukemia
  TGI: 8.08 µM
NCI-H522 lung
  TGI: 0.00228 µM
HOP-92 NSCLC
  TGI: > 25 µM
HCT-116 colon
  TGI: > 25 µM
MALME-3M melanoma
  GI50: 0.000357 µM
HT29 colon
  TGI: > 25 µM
HCC-2998 colon
  TGI: > 25 µM
UO-31 renal
  GI50: 0.187 µM
  TGI: > 25 µM
DU-145 prostate
  TGI: 0.0101 µM
BT-549 breast
  GI50: 0.00109 µM
SK-MEL-5 melanoma
  TGI: 4.52 µM
HCT-15 colon
  GI50: 0.0396 µM
  TGI: > 25 µM

## O=C1C(Cl)N(c2c(Cl)cccc2Cl)C1c1c[nH]c2ccccc12 (centres undefined)
SR leukemia
  TGI: > 100 µM
RPMI-8226 leukemia
  TGI: > 100 µM
NCI-H522 lung
  TGI: > 100 µM
HOP-92 NSCLC
  TGI: > 100 µM
HCT-116 colon
  TGI: > 100 µM
M19-MEL melanoma
  TGI: > 100 µM
MALME-3M melanoma
  TGI: > 100 µM
HT29 colon
  TGI: > 100 µM
UO-31 renal
  TGI: > 100 µM
SK-MEL-5 melanoma
  TGI: > 100 µM
K-562 leukemia
  TGI: > 100 µM
M14 melanoma
  TGI: > 100 µM

## O=[N+]([O-])C(=C/c1ccccc1)/C(=C\c1ccccc1)[N+](=O)[O-]
RPMI-8226 leukemia
  TGI: 48.4 µM
HOP-92 NSCLC
  TGI: 39.8 µM
HCT-116 colon
  TGI: 31.7 µM
HT29 colon
  TGI: 31.4 µM
HCC-2998 colon
  TGI: 36 µM
UO-31 renal
  TGI: 31.3 µM
DU-145 prostate
  TGI: 29.7 µM
BT-549 breast
  TGI: 31.4 µM
SK-MEL-5 melanoma
  TGI: 30.2 µM
K-562 leukemia
  TGI: > 100 µM
M14 melanoma
  TGI: 41.6 µM

## CCOC(=O)Cc1cc(OC)c(OC)cc1/C(Cl)=C(\CO)c1ccc(OC)c(OC)c1
RPMI-8226 leukemia
  TGI: > 100 µM
HOP-92 NSCLC
  TGI: 98.1 µM
HCT-116 colon
  TGI: > 100 µM
M19-MEL melanoma
  TGI: > 100 µM
MALME-3M melanoma
  TGI: > 100 µM
HT29 colon
  TGI: > 100 µM
UO-31 renal
  TGI: > 100 µM
SK-MEL-5 melanoma
  TGI: > 100 µM
HCT-15 colon
  TGI: > 100 µM
K-562 leukemia
  TGI: > 100 µM
M14 melanoma
  TGI: > 100 µM
